Paper PMC8587043, “An Investigation into the Interaction between Double Hydroxide-Based Antioxidant Benzophenone Derivatives and Cyclooxygenase 2” (Molecules, 2021)

Legend:
COX2 [1] = target: T1, COX2 (Homo sapiens, UniProt P35354); assay: Biolayer interferometry (BLI) binding to His-tagged COX2 on Ni-NTA sensors; details: for Kd: BLI, one-to-one binding model, 4–6 point concentration series, read-out: KD (equilibrium dissociation constant); for COX2 binding in BLI: initial assay at 100 μM, binders re-assayed in concentration series
T1 construct: purchased Sino Biological Co. (Beijing, China)
T1 sequence (P35354 18-604): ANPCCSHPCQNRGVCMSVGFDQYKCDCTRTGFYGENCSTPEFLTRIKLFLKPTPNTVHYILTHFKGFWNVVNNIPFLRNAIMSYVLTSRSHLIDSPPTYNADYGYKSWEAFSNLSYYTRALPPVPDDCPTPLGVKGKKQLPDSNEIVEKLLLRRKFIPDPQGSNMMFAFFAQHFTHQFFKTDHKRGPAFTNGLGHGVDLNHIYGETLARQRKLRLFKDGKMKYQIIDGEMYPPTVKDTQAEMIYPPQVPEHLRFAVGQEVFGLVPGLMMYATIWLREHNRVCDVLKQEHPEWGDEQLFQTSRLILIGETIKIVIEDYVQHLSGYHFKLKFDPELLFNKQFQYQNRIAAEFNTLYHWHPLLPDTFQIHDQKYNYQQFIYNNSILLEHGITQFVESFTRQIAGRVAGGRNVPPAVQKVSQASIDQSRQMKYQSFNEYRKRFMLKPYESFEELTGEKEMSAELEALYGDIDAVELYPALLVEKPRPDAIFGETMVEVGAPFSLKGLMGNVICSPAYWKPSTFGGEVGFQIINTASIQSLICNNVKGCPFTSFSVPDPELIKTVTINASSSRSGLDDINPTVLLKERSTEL
Source text: The label-free real-time binding assay, BLI, was firstly performed to evaluate the potential COX2 binding activities of the twelve novel compounds. COX2 protein was captured onto the Ni-NTA sensors, by the virtue of its His-tag, followed by exposure to small-molecule compound. The binding of small-molecule compound to the biosensor increased the layer thickness of the sensor, resulting in an interference wavelength shift recorded by BLI. All 12 compounds were initially assayed at a single concentration of 100 μM (Figure 2a).
A significant shift in the association curve was observed upon addition of different concentrations of compounds DB2, SC2 and YB2 to COX2 in a concentration dependent manner (Figure 2b–d). During the dissociation step, it was also observed that the signal decreased to the baseline. That was a sign of a total protein-ligand dissociation, thus indicating the interaction was reversible. The real-time binding curves were generated fitting to a one-to-one binding model. The ratio of koff (dissociation) and kon (association) constants was equilibrium dissociation constants (KD).
His-tagged COX2 solution (40 μg∙mL^−1), which was prepared in phosphate buffer saline (PBS), was immobilized on Ni-NTA biosensor tips for 600 s. To remove drift and well-to-well artifacts, we performed double reference subtraction with FortéBio data analysis software. All the twelve compounds stock solutions (10 mM) were prepared in dimethyl sulfoxide (DMSO). The stock solutions were diluted with PBS containing 0.1% […] (PBST) to 100 μM for the initial assay. Typically, for re-assay, the stock solutions were serially diluted (4–6 point serial dilutions) in PBST. Compound testing was performed sequentially taking baseline, association and dissociation steps. Each of these steps took 60 s. The alignment of data was carried out using baseline signal and curves fitted with a one to one best-fit model in FortéBio’s data analysis software.

COX2 [2] = target: T1, COX2; assay: Fluorescence resonance energy transfer between COX2 and compound; type: binding; details: for J (effective spectral overlap): COX2 emission vs compound absorption, each 5.0 × 10^−8 mol∙L^−1; for r (separation distance between COX2 and compound): κ^2 = 2/3, N = 1.336, φ = 0.15
Source text: The transfer of energy from the protein donor to the ligand acceptor is generally seen in strong protein–ligand complexes. In addition to divulging the binding activities, assessments of the energy transfer efficiency can reveal the distance between the ligand and the ligand binding site on the protein [47]. According to Förster theory, the efficiency depends not only on the orientation and distance of the molecules but also on the extent of overlap between the donor emission and acceptor absorption. The distance between the donor and acceptor must be in the 2 to 8 nm range [47, 48]. The overlaps of fluorescence emission spectrum of COX2 with absorption spectrum of compounds DB2, SC2 or YB2 are presented in Figure 5g–i, respectively. The energy transfer efficiency (E) from donor to acceptor was calculated by a widely used method:(6) E=R06/R06+r^6=F0−F/F0 (7) R06=8.79×10^−25κ^2N^−4φJ (8) J=∑^ F(λ)ε(λ)λ^4Δλ/∑^F(λ)Δλ
Here, r is the separation distance between the donor (COX2) and acceptor (DB2, SC2 or YB2). R0 is the Förster critical distance when E = 50%. κ^2 is the orientation space factor. N is the refractive index of medium surrounding the fluorophores. φ is the fluorescence quantum yield of the donor. J is overlap integral of the donor fluorescence emission spectrum and acceptor absorption spectrum. F(λ) is the fluorescence intensity of the protein at the wavelength λ, ε(λ) is the molar absorption coefficient of acceptor at λ. Using the values of κ^2 = 2/3, N = 1.336 and φ = 0.15 [49], J and r were calculated (Table 2).
The fluorescence intensity of the system was measured with a 1.0 cm quartz cell. COX2 protein was dissolved in PBS for a final concentration of 6.0 × 10^−8 mol∙L^−1. DB2, SC2 or YB2 stock solutions were prepared in singleton at 1.5 × 10^−3 mol∙L^−1 in PBS containing 0.1% DMSO. 2.0 mL COX2 solution was separately titrated by continuing additions of 10 μL compounds DB2, SC2 or YB2 solution). After incubation at 298 K or 310 K, fluorescence quenching spectra were recorded in the region 325-450 nm at a scan rate of 1200 nm∙min^−1. The local environment of Tyr and Trp residues was quite sensitive at 280 nm, so the excitation wavelength was set at this wavelength. Typically, 280 nm is also used to measure the changes in protein tertiary structure. The slit widths of emission and excitation were both fixed at 10 nm. To observe spectra behaviors of Tyr and Trp groups of COX2, the wavelength interval between the excitation and emission wavelengths (Δλ) was set as 15 nm and 60 nm, respectively. Three-dimensional fluorescence spectroscopy was obtained for an excitation range of 200–300 nm and an emission range of 325–400 nm. Appropriate buffer solutions, determined under the same operation conditions, were used as blanks. Each spectrum was recorded three times.

Row | Structure (SMILES) | Kd (COX2 [1]) [µM] | COX2 binding in BLI (COX2 [1]) | J (effective spectral overlap) (COX2 [2]) | r (separation distance between COX2 and compound) (COX2 [2]) [nm]
1 | CCCCc1ccc(C(=O)c2c(Br)cc(O)c(O)c2O)cc1 [DB2] | 394 | interacted with the protein | 1.64 ×10^−13 cm^3∙L∙mol^−1 | 6.42
2 | CC(C)(C)c1ccc(C(=O)c2c(Cl)cc(O)c(O)c2O)cc1 [SC2] | 627 | interacted with the protein | 1.55 ×10^−13 cm^3∙L∙mol^−1 | 6.62
3 | CC(C)Cc1ccc(C(=O)c2c(Br)cc(O)c(O)c2O)cc1 [YB2] | 766 | interacted with the protein | 1.72 ×10^−13 cm^3∙L∙mol^−1 | 6.47
